Results from patent publication US20080004177A1, “Novel Copper-Containing Formulations” (priority 2003, published 2008).

System: Septoria tritici
Test: Growth assay with Septoria tritici as indicator fungus (photometric)
Type: cell-based
Conditions: active ingredient concentration in the spray mixture 1 ppm
Description: A growth assay was carried out with Septoria tritici as indicator fungus. The fungal growth was measured photometrically by the increase in absorption or light scattering as a function of mycelium density. The data obtained were converted into percent growth inhibition, the absorption of the untreated controls being defined as 0% inhibition and that of a killed spore suspension as reference as 100% inhibition.
The expected efficacies of combinations of active ingredients were determined using Colby's formula (Colby, S. R. (Calculating synergistic and antagonistic responses of herbicide combinations”, Weeds, 15, pp. 20-22, 1967)) and compared with the observed efficacies.
E=x+y−x·y/100 • E expected efficacy, expressed in % of the untreated control, when using the mixture of the active ingredients A and B at the concentrations a and b • x efficacy, expressed in % of the untreated control, when using the active ingredient A at the concentration a • y efficacy, expressed in % of the untreated control, when using the active ingredient B at the concentration b

COC(=O)N(OC)c1ccccc1COc1ccn(-c2ccc(Cl)cc2)n1 [II, Pyraclostrobin]
Growth inhibition: 57%
